Assay results published in patent US11091497B2, “Pyrano[3,4-b]pyrazine kappa opioid receptor ligands for treating addiction, pruritus, pain, and inflammation” (The Rockefeller University, priority 2017, dated 2021).

What was measured:
[1] = target: T1, kappa opioid receptor (PathHunter U2OS hOPRK1 β-arrestin cell line) (Homo sapiens, UniProt P41145); assay: β-arrestin coupling (PathHunter Detection Kit); assay type: cell-based; conditions: for Emax at 10 µM: U2OS, read-out: β-arrestin coupling % efficacy
T1 construct: host or cells: U2OS (PathHunter U2OS hOPRK1 β-arrestin cell line)
T1 sequence (P41145 whole entry): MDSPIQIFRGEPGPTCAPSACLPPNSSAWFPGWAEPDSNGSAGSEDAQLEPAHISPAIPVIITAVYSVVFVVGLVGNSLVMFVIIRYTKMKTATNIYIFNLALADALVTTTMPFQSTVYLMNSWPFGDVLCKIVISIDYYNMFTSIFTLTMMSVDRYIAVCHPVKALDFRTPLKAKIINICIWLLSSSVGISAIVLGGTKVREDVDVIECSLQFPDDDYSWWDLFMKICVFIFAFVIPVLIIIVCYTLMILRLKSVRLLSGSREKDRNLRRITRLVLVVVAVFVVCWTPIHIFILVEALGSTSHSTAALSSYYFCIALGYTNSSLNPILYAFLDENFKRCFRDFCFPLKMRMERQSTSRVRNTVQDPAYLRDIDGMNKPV

mice = assay: Rotarod incoordination in mice; assay type: in vivo; conditions: intraperitoneal
Text: In the case of rotarod incoordination, kappa agonist effects in this assay reflect kappa-opioid receptor arrestin mediated signaling. This assay is thought to be a sensitive measure of the sedative properties of kappa opioid receptor agonists. Generally, a compound which has reduced efficacy in the coupling of arrestin with the kappa opioid receptor is thought to have a lowered potential for the sedative side effects of kappa opioid receptor ligands. Rotarod assays in vivo are employed to confirm this possibility.
Rotarod experiments were conducted with mice using a dedicated rodent rotarod apparatus, with up to five animals tested concurrently (IITC Life Science, Woodland Hills, Calif., USA). Rotarod rotation rate begins at 3 rotations per minute, and ramps to 30 rotations per minute over the course of 300 s, at which time the assay is terminated and animals removed to their home cage. Animals were acclimated to the rotarod on at least two occasions prior to the day of the test. On the day of the test, baseline times for each animal to fall off the rotarod were recorded. Mice were then injected intraperitoneally with vehicle or compound, and rotarod measurements conducted, beginning 0-2 minutes after injection, and then subsequently at select time points thereafter.

Serum prolactin levels = assay: Prolactin release in mice; assay type: in vivo; conditions: intraperitoneal, 30 minutes prior to sampling
Protocol: Mice were injected intraperitoneally with the compound to be tested 30 minutes prior to sampling. Trunk blood was collected by rapid decapitation, followed within 2 hours by preparation of serum. Serum prolactin levels were determined using a commercially available enzyme-linked immunoassay (AbCam, Cambridge, UK) following dilution of serum 5-fold in assay buffer.

Row | Structure (SMILES) | EC50 [1] [µM] | Emax at 10 µM [1] [%] | rotarod incoordination (mice; 10 mg/kg) | rotarod incoordination (mice; 30 mg/kg) | rotarod incoordination (mice; 90 mg/kg) | prolactin release (Serum prolactin levels; 5 mg/kg) | prolactin release (Serum prolactin levels; 30 mg/kg)
1 | O=C(Cc1ccc(Cl)c(Cl)c1)N1CCN[C@@H]2COC[C@H](N3CCCC3)[C@H]21 (racemic) [Example 5A22, 1-[8-pyrrolidin-1-yl-2,3,4,4a,5,7,8,8a-octahydropyrano(3,4-b)pyrazin-1-yl]-2-(3,4-dichlorophenyl)ethanone] | 1.13 | 67 | no significant incoordination | significant incoordination | significant incoordination | significant prolactin release | –
2 | CN1CCN(C(=O)Cc2ccc(Cl)c(Cl)c2)[C@H]2[C@H]1COC[C@@H]2N1CCCC1 (racemic) [Example 5A23, 1-[4-methyl-8-pyrrolidin-1-yl-3,4a,5,7,8,8a-hexahydro-2H- -pyrano(3,4-b)pyrazin-1-yl]-2-(3,4-dichlorophenyl)ethanone] | 5.54 | 44 | no significant incoordination | statistically significant incoordination | statistically significant incoordination | – | significant prolactin release
